From patent publication US20030055065A1, “Tricyclic amide and urea compounds useful for inhibition of G-protein function and for treatment of proliferative diseases” (priority 1993, published 2003)
Values joined by “and” are separate entries in the source; they are usually repeats but may differ in a detail not shown here. Equal values may be shown once. Read-outs that look alike come from different tables or passages of the source.

How the values were obtained:
[1] = system: Ras-CVLS processing in COS monkey kidney cells; experiment: COS cell assay: Ras-CVLS processing (Western blot); type: cell-based; details: Primates, COS
Method in brief: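 COS cells electroporated with Ras-CVLS (farnesyl transferase substrate) cDNA, with drug-containing fresh medium added at 24 h and cells examined at 48 h. TCA-precipitated cellular protein was resolved by SDS gel and immunoblotted with anti-p21 Ras monoclonal and HRP anti-rat IgG to monitor Ras processing.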

[2] = system: Ras-CVLL processing in COS monkey kidney cells; experiment: COS cell assay: Ras-CVLL processing (geranylgeranylation); type: cell-based; details: concentrations up to 20 μg/mL
From the text: (§1) 2. Cell-Based Assay: Transient expression of val^12-Ha-Ras-CVLS and val^12-Ha-Ras-CVLL in COS monkey kidney cells: Effect of farnesyl protein transferase inhibitors on Ras processing and on disordered cell growth induced by transforming Ras.
COS monkey kidney cells were transfected by electroporation with the plasmid pSV-SPORT (Gibco/BRL) containing a cDNA insert encoding either Ras-CVLS or Ras-CVLL, leading to transient overexpression of a Ras substrate for either farnesyl protein transferase or geranylgeranyl protein transferase I, respectively (see above). […]
Membranes were blocked by incubation overnight at 4° C. in PBS containing 2.5% dried milk and 0.5% Tween-20 and then incubated with a Ras-specific monoclonal antibody, Y13-259 (Furth, M. E., et al., (1982), Monoclonal antibodies to the p21 products of the transforming gene of Harvey murine sarcome virus and of the cellular ras gene family, J. Virol. 43: 294-304), in PBS containing 1% fetal calf serum for one hour at room temperature. […] The presence of processed and unprocessed Ras-CVLS or Ras-CVLL was detected using a colorimetric peroxidase reagent (4-chloro-1-naphthol) as described by the manufacturer (Bio-Rad).

[3] = system: COS monkey kidney cells expressing val12-Ha-Ras-CVLS; experiment: COS cell assay: disordered cell growth / morphological changes induced by Ras-CVLS; type: cell-based
From the text: as §1
(§2) COS monkey kidney cells were transfected by electroporation with the plasmid pSV-SPORT (Gibco/BRL) containing a cDNA insert encoding either Ras-CVLS or Ras-CVLL, leading to transient overexpression of a Ras substrate for either farnesyl protein transferase or geranylgeranyl protein transferase I, respectively (see above).
(§3) Following electroporation, cells were plated into 6-well tissue culture dishes containing 1.5 ml of Dulbecco's-modified Eagle's media (GIBCO, Inc.) supplemented with 10% fetal calf serum and the appropriate farnesyl protein transferase inhibitors. After 24 hours, media was removed and fresh media containing the appropriate drugs was re-added.
(§4) 48 hours after electroporation cells were examined under the microscope to monitor disordered cell growth induced by transforming Ras. Cells expressing transforming Ras become more rounded and refractile and overgrow the monolayer, reminiscent of the transformed phenotype. […]

[4] = system: COS monkey kidney cells expressing val12-Ha-Ras-CVLL; experiment: COS cell assay: disordered cell growth / morphological changes induced by Ras-CVLL; type: cell-based; details: 20 μg/mL
From the text: as §1, §2, §3, §4

[5] = system: T24-BAG4 human bladder carcinoma cells expressing an activated H-ras gene; experiment: Cell Mat Assay: tumor cell colony inhibition (tIC50); type: cell-based; details: Homo sapiens, inhibition of tumor cell growth
Method in brief: (§5)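 Serial compound dilutions added 24 h after planting T24-BAG4 cells onto a mat of normal cells, then 14 d colony growth; monolayers glutaraldehyde-fixed and tumor cells X-Gal stained. tIC50 and mIC50 from microscope counts of colonies, cells per colony and mat cell density.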

[6] = biological target: T1, farnesyl protein transferase (FPT), partially purified from rat brain (Rattus norvegicus, UniProt Q02293+Q04631); experiment: Inhibition of farnesyl protein transferase (transfer of [3H]farnesyl to Ras-CVLS); type: biochemical; details: read-out: FPT IC50
T1 construct: were partially purified from rat brain by ammonium sulfate fractionation followed by Q-Sepharose
Method in brief: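 Partially purified farnesyl protein transferase with His6-tagged val12-Ha-Ras-CVLS substrate and [3H]farnesyl pyrophosphate, 30 min at room temperature. Stopped with SDS/TCA, precipitated Ras collected on GF/C filters; percent inhibition relative to DMSO vehicle control.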

[7] = biological target: T2, geranylgeranyl protein transferase (GGPT) I (Rattus norvegicus, UniProt P53610+Q04631); experiment: Inhibition of geranylgeranyl protein transferase I (Ras-CVLL as acceptor); type: biochemical; details: for selective for FPT inhibition (over GGPT): FPT versus GGPT; for IC50: enzyme inhibition
T2 construct: were partially purified from rat brain by ammonium sulfate fractionation followed by Q-Sepharose
Method in brief: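 Rat brain GGPT I, partially purified by ammonium sulfate fractionation and anion exchange, was assayed with [3H]geranylgeranyl pyrophosphate as isoprenoid donor. The acceptor was E. coli-expressed His6-tagged val12-Ha-Ras ending in CVLL. The protocol otherwise matched the farnesyl protein transferase assay.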

[8] = system: Normal human HEPM fibroblasts; experiment: Cell Mat Assay: density of mat cells (mIC50); type: cell-based; details: Homo sapiens, Fibroblast
Method in brief: as §5

[9] = system: M27 (mouse Lewis lung carcinoma); experiment: In vivo anti-tumor study, M27; set-up: species or system athymic nu/nu female mice; details: po; for Average % Tumor Inhibition: M27 tumor, 100 MPK, 14/wk, x4; for percent inhibition of tumor growth relative to vehicle controls: s.c. tumor M27, BID, 1-7, ×4
From the text: In vivo Anti-tumor Studies

[10] = system: A431 (human epidermal carcinoma); experiment: In vivo anti-tumor study, A431; set-up: species or system athymic nu/nu female mice; concentration or dose not given beside the values; details: s.c. tumor A431, BID, 1-5, ×4
[11] = system: SW620 (human colon adenocarcinoma [lymph node metastasis]); experiment: In vivo anti-tumor study, SW620; set-up: species or system athymic nu/nu female mice; percent inhibition of tumor growth relative to vehicle controls: concentration or dose not given beside the values; details: for inhibition in vivo at 100 mg/kg: Mus musculus, SW620 tumor, 100 MPK, 10/wk; for percent inhibition of tumor growth relative to vehicle controls: s.c. tumor SW-620, BID
[12] = system: C-f-1 (mouse fibroblast transformed with c-fos oncogene); experiment: In vivo anti-tumor study, C-f-1; set-up: species or system athymic nu/nu female mice; concentration or dose not given beside the values; details: s.c. tumor C-f-1, BID
[13] = COS cells, read-out: Inhibition of Ras Processing IC50
[14] = Ras-CVLS farnesylation, partially purified rat brain FPT

T2 sequence (P53610 whole entry, one chain of several): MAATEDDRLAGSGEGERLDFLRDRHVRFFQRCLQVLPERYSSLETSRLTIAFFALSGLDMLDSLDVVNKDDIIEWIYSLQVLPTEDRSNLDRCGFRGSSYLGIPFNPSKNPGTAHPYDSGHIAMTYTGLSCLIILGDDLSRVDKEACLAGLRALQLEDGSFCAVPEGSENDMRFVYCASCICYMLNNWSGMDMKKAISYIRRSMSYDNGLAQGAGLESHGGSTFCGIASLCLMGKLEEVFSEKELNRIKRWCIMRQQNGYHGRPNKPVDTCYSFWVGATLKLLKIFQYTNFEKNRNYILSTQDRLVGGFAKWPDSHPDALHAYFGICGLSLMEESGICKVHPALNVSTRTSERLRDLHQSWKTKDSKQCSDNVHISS
T1 sequence (Q02293 whole entry, one chain of several): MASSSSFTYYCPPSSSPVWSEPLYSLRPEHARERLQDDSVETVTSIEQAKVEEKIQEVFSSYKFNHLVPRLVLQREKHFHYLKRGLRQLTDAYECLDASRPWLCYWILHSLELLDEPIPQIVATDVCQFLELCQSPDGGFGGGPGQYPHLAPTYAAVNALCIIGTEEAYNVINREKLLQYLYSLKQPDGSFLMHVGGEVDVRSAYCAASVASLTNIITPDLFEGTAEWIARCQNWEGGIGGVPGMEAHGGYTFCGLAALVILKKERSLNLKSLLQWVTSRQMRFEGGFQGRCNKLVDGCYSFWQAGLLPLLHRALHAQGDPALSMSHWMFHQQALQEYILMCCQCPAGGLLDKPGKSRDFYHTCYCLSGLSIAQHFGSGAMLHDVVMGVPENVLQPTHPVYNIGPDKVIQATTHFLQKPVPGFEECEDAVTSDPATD

| SMILES | IC50 [1, 13] [µM] | IC50 [5] [µM] | IC50 [6, 14] [µM] | IC50 ([6]; enzyme inhibition) [µM] | selective for FPT inhibition (over GGPT) [7] | IC50 [7] [µM] | IC50 [8] [µM] | Average % Tumor Inhibition [9] [%] | percent inhibition of tumor growth relative to vehicle controls [9] [%] | percent inhibition of tumor growth relative to vehicle controls ([10]; po) | inhibition in vivo at 100 mg/kg ([11]; SW-620, po, po, x2) [%] | inhibition in vivo at 100 mg/kg ([11]; SW-620, po, po, x4) [%] | percent inhibition of tumor growth relative to vehicle controls ([11]; ip, 1-5, ×4) [%] | percent inhibition of tumor growth relative to vehicle controls ([11]; po, 1-5, ×2) [%] | percent inhibition of tumor growth relative to vehicle controls ([11]; po, 1-5, ×4) [%] | percent inhibition of tumor growth relative to vehicle controls ([12]; ip, 1-5, ×2) [%] | percent inhibition of tumor growth relative to vehicle controls ([12]; po, 1-5, ×4) [%] | percent inhibition of tumor growth relative to vehicle controls ([10]; ip) [%] | other results |
| --- | --- | --- | --- | --- | --- | --- | --- | --- | --- | --- | --- | --- | --- | --- | --- | --- | --- | --- | --- |
| O=C(Cc1ccncc1)N1CCC(=C2c3ccc(Cl)cc3CCc3cccnc32)CC1 [Example 1, 1-(4-pyridylacetyl)-4-(8-chloro-5,6-dihydro-11H-benzo[5,6]cyclohepta[1,2-b]pyridin-11-ylidene)piperidine] | 1 | 3.1 | – | – | – | – | – | – | – | – | – | – | – | – | – | – | – | – | IC50 ([1]; Ras-transfected COS cells, read-out: Ras-CVLS processing IC50): 1 µM and 0.44 µg/mL; geranylgeranylation of Ras-CVLL [2]: did not block; morphological changes induced by Ras-CVLS ([3]; at 0.2 or 0.5 μg/mL): little effect; morphological changes induced by Ras-CVLS ([3]; concentration range of 2 to 20 μg/mL): inhibited the morphological changes induced by Ras-CVLS in a dose-dependent manner; morphological changes induced by Ras-CVLL [4]: did not prevent the morphological changes |
| O=C(Cc1cccnc1)N1CCC(=C2c3ccc(Cl)cc3CCc3cccnc32)CC1 [Example 2, 8-chloro-11-[1-(1-(3-pyridyl)-methylcarbonyl)-4-piperidylidene]-6,11-dihydro-5H-benzo[5,6]cyclohepta[1,2-b]-pyridine] | 3.7 | 25 | 0.47 | 0.47 | at least 98 fold | > 46 | > 50 | 45 | 61.2 | 45.6% and 36.5% | 0 | 1 | 0 | 46.1 | 33.5 | 8 | 9.6 | – | inhibition at 46 µM ([7]; at 46 μM, Ras-CVLL as isoprenoid acceptor): 25%; inhibition in vivo at 100 mg/kg ([11]; SW-620, ip, ip, x2): 0% |
| O=C(CN1C(=O)c2ccccc2C1=O)N1CCC(=C2c3ccc(Cl)cc3CCc3cccnc32)CC1 [Example 3] | > 10 | > 50 | 0.66 | 0.66 | at least 59 fold | > 39 | > 50 | – | 27.3 | – | – | – | 27 | 15.8 | – | 8 | 0 | 0 | inhibition at 39 µM ([7]; at 39 μM, Ras-CVLL as isoprenoid acceptor): 3% |
| O=C(c1ccc(O)cc1)N1CCC(=C2c3ccc(Cl)cc3CCc3cccnc32)CC1 [Example 7] | – | 50 | 2.3 | 2.3 | – | > 45 | 100 | 40 | 58.2 | 29.1% | 13 | 0 | 19.6 | 48.6 | 0 | 39.7 | 39.3 | 0 | – |
